The results in this text go back to patent publication US9365508B2, “Aroyl thiourea derivatives” (University Court of the University of St Andrews, priority 2009, dated 2016).

Where a name gives a salt, the structure may show the parent alone.

One assay addresses SIRT1 (Homo sapiens (Human), UniProt Q96EB6). As to the kind of experiment: SIRT1 inhibition assay (Fluor de Lys fluorescence-based assay kit). Format: biochemical. The settings on record: human recombinant enzyme; for inhibition at 60 µM: 60 μM compound, read-out: SirT1 (% inhib at 60 μM). The method, then:
(§1) SIRT1 and SIRT2 Inhibition Assays
(§2) All compounds were tested for inhibition of SIRT1 and SIRT2 using human recombinant enzymes available in the Fluor de Lys fluorescence-based assay kit (BIOMOL, AK555, AK556). All other required reagents were provided in the kit which was stored at −78° C. Before use, small aliquots of each enzyme (2-3 μL) were prepared, snap frozen in liquid nitrogen and stored at −78° C. Fresh dilutions of compounds were prepared in DMSO and further diluted in assay buffer. NAD^+ (12.5 […] at 4 mM) and Fluor de Lys SIRT1 or SIRT2 (12.5 μL at 100 μM) in assay buffer were added to a white 96 well plate, followed by compound (10 μL) and lastly enzyme (15 μL, 0.07 U/μL or SIRT1 and 0.3 U/μL for SIRT2). After incubation for 1 h at 37° C. a developer solution (50 μL) was added to each reaction. The developer solution contained 38 μL buffer, 10 μL developer and 2 μL nicotinamide (50 mM) per reaction. The plate was then incubated for 45 min at rt and then read using a Spectra Max Gemini fluorimeter with an excitation wavelength of 355 nm and an emission wavelength of 460 nm. SigmaPlot software was used to generate fit curves for raw plots and the equation for each curve was used to calculate IC50 data.

The next assay addresses SIRT2 (Homo sapiens (Human), UniProt Q8IXJ6). Nature of the assay: SIRT2 inhibition assay (Fluor de Lys fluorescence-based assay kit). The format is biochemical. Particulars: human recombinant enzyme; for inhibition at 60 µM: 60 μM compound, read-out: SirT2 (% inhib at 60 μM). The method, then:
as §1, §2

Sequence of SIRT2 (Q8IXJ6 whole entry): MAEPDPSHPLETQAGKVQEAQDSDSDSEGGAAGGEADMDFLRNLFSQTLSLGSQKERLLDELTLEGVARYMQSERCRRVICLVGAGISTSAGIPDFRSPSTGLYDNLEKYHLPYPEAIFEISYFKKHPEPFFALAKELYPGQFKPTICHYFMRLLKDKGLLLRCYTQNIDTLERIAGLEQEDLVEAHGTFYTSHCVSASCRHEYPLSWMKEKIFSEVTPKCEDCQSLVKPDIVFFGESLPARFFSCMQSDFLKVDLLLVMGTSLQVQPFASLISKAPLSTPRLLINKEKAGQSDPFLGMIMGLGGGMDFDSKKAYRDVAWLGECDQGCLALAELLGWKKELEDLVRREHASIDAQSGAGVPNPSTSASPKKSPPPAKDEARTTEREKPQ
Sequence of SIRT1 (Q96EB6 whole entry): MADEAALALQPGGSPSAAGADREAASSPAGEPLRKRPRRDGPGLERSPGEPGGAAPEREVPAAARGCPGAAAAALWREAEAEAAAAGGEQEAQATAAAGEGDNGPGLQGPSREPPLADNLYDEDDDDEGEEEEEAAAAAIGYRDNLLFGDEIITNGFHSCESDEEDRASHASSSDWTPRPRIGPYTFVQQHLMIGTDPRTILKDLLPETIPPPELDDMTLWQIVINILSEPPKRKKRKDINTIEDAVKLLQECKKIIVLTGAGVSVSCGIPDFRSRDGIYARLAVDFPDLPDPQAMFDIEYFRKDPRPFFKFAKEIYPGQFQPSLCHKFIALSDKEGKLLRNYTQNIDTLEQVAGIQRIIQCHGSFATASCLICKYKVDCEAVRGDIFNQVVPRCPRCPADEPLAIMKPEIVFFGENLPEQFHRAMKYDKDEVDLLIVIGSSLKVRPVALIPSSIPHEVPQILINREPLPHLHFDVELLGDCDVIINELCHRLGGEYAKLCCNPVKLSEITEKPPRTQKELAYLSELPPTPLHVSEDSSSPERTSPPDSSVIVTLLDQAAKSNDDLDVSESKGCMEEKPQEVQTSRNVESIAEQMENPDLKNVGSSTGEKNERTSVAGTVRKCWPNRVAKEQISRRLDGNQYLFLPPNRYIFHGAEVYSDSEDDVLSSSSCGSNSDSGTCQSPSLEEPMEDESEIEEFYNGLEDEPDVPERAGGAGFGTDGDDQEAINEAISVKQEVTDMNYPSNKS

Consider `CN(C)CCCCC(=O)Nc1ccc(NC(=S)NC(=O)c2ccc(Cl)cc2)cc1` [318a A1, 5-Dimethylamino-pentanoic acid {4-[3-(4-chloro-benzoyl)-thioureido]-phenyl}-amide hydrochloride], for which the inhibition at 60 µM on SIRT1 came out at 53%; at SIRT2, 61%.

With `Cc1ccc(C(=O)NC(=S)Nc2ccc(NC(=O)CCCCN(C)C)cc2)cc1` [318a A2, 5-Dimethylamino-pentanoic acid {4-[3-(4-methyl-benzoyl)-thioureido]-phenyl}-amide hydrochloride], the inhibition at 60 µM on SIRT1 came out at 47%; at SIRT2 it was 40%.

As to `COc1ccc(C(=O)NC(=S)Nc2ccc(NC(=O)CCCCN(C)C)cc2)cc1` [318a A3, 5-Dimethylamino-pentanoic acid {4-[3-(4-methoxy-benzoyl)-thioureido]-phenyl}-amide hydrochloride], the inhibition at 60 µM was 48% at SIRT1 and 51% on SIRT2.

For `CN(C)CCCCC(=O)Nc1ccc(NC(=S)NC(=O)c2ccc(Cl)c(Cl)c2)cc1` [Compound 311d, 5-Dimethylamino-pentanoic acid {4-[3-(3,4-dichloro-benzoyl)-thioureido]-phenyl}-amide hydrochloride], the inhibition at 60 µM at SIRT1 amounted to 8%; at SIRT2, 68%. In addition, the IC50 on SIRT1 came to 70.9 ± 4.2 µM; on SIRT2, 31.9 ± 6.4 µM.

Regarding `Cc1ccc(C(=O)NC(=S)Nc2ccc(NC(=O)CCCCN(C)C)cc2)cc1Br` [Compound 330a, 5-Dimethylamino-pentanoic acid {4-[3-(3-bromo-4-methyl-benzoyl)-thioureido]-phenyl}-amide hydrochloride], the inhibition at 60 µM is 33% at SIRT1 and 80.2% at SIRT2. Further, the IC50 turned out to be 43.9 ± 7.3 µM on SIRT1 and 31.9 ± 1.6 µM on SIRT2.

For `CC(C)c1ccc(C(=O)NC(=S)Nc2ccc(NC(=O)CCCCN(C)C)cc2)cc1` [Compound 331a, 5-Dimethylamino-pentanoic acid {4-[3-(4-isopropyl-benzoyl)-thioureido]-phenyl}-amide hydrochloride], at SIRT1, the inhibition at 60 µM came to 52.9% and the IC50 stood at 64.8 ± 3.8 µM. For the same molecule, at SIRT2, the inhibition at 60 µM came out at 78.4% and the IC50 amounted to 32.5 ± 0.07 µM.

With `CN(C)CCCCC(=O)Nc1ccc(NC(=S)NC(=O)c2ccc(N(C)C)cc2)cc1` [Compound 332a, 5-Dimethylamino-pentanoic acid {4-[3-(4-dimethylamino-benzoyl)-thioureido]-phenyl}-amide hydrochloride], the inhibition at 60 µM on SIRT1 is 55.7%; at SIRT2, 61.5%.

Consider `CCCCCc1ccc(C(=O)NC(=S)Nc2ccc(NC(=O)CCCCN(C)C)cc2)cc1` [Compound 345a, 5-Dimethylamino-pentanoic acid {4-[3-(4-pentyl-benzoyl)-thioureido]-phenyl}-amide hydrochloride], for which the values for the inhibition at 60 µM on SIRT1 and at SIRT2 were 73% and 85.4%, respectively.

As for `CCCCc1ccc(C(=O)NC(=S)Nc2ccc(NC(=O)CCCCN(C)C)cc2)cc1` [Compound 345b, 5-Dimethylamino-pentanoic acid {4-[3-(4-butyl-benzoyl)-thioureido]-phenyl}-amide hydrochloride], the inhibition at 60 µM on SIRT1 worked out at 56.3%; on SIRT2 it was 90%.

As for `CCCc1ccc(C(=O)NC(=S)Nc2ccc(NC(=O)CCCCN(C)C)cc2)cc1` [Compound 345c, 5-Dimethylamino-pentanoic acid {4-[3-(4-propyl-benzoyl)-thioureido]-phenyl}-amide hydrochloride], the inhibition at 60 µM at SIRT1 was determined as 82.4%; at SIRT2 it was 89%.

In the case of `CCc1ccc(C(=O)NC(=S)Nc2ccc(NC(=O)CCCCN(C)C)cc2)cc1` [Compound 345d, 5-Dimethylamino-pentanoic acid {4-[3-(4-ethyl-benzoyl)-thioureido]-phenyl}-amide hydrochloride], the figures for the inhibition at 60 µM at SIRT1 and at SIRT2 were 9.1% and 57.1%, respectively.

As for `COc1ccc(C(=O)NC(=S)Nc2ccc(NC(=O)CCCCN(C)C)cc2)cc1Cl` [Compound 350a, 5-Dimethylamino-pentanoic acid {4-[3-(3-chloro-4-methoxy-benzoyl)-thioureido]-phenyl}-amide hydrochloride], the inhibition at 60 µM was determined as 9% at SIRT1 and 37.8% at SIRT2.

In the case of `CN(C)CCCCC(=O)Nc1ccc(NC(=S)NC(=O)c2cc(Cl)cc(Cl)c2)cc1` [Compound 360a, 5-Dimethylamino-pentanoic acid {4-[3-(3,5-dichloro-benzoyl)-thioureido]-phenyl}-amide hydrochloride], the inhibition at 60 µM was found to be 23.3% at SIRT1 and 49.9% at SIRT2.

`CN(C)CCCCC(=O)Nc1ccc(NC(=S)NC(=O)c2ccc(C(C)(C)C)c(Br)c2)cc1` [Compound 361a, 5-Dimethylamino-pentanoic acid {4-[3-(3-bromo-4-tert-butyl-benzoyl)-thioureido]-phenyl}-amide hydrochloride]: on SIRT1, the inhibition at 60 µM came to 93.5% and the IC50 is 18.3 ± 0.3 µM. On SIRT2, the inhibition at 60 µM came out at 91.1% and the IC50 amounted to 4.6 ± 0.6 µM.

Regarding `COc1c(Br)cc(C(=O)NC(=S)Nc2ccc(NC(=O)CCCCN(C)C)cc2)cc1Br` [Compound 383a, 5-Dimethylamino-pentanoic acid {4-[3-(3,5-dibromo-4-methoxy-benzoyl)-thioureido]-phenyl}-amide hydrochloride], the 50% inhibitory concentration (IC50) turned out to be 47.2 ± 0.9 µM at SIRT1 and 14 ± 1.7 µM at SIRT2.

Consider `CCOc1c(Cl)cc(C(=O)NC(=S)Nc2ccc(NC(=O)CCCCN(C)C)cc2)cc1Cl` [Compound 391a, 5-Dimethylamino-pentanoic acid {4-[3-(3,5-dichloro-4-ethoxy-benzoyl)-thioureido]-phenyl}-amide hydrochloride], for which, on SIRT1, the inhibition at 60 µM turned out to be 81.5% and the IC50 was determined as 29.3 ± 3.6 µM. Besides, on SIRT2, the inhibition at 60 µM was 87.9% and the IC50 came out at 3 ± 0.1 µM.

Turning to `CCCCOc1c(Cl)cc(C(=O)NC(=S)Nc2ccc(NC(=O)CCCCN(C)C)cc2)cc1Cl` [Compound 392a, 5-Dimethylamino-pentanoic acid {4-[3-(4-butoxy-3,5-dichloro-benzoyl)-thioureido]-phenyl}-amide hydrochloride], at SIRT1, the inhibition at 60 µM turned out to be 90.4% and the IC50 amounted to 22.5 ± 1.3 µM. Moreover, at SIRT2, the inhibition at 60 µM was found to be 96.3% and the IC50 turned out to be 0.4 ± 0.4 µM.

Regarding `Cc1ccccc1C(=O)NC(=S)Nc1ccc(NC(=O)CCCCN(C)C)cc1` [Compound A1, 5-Dimethylamino-pentanoic acid {4-[3-(2-methyl-benzoyl)-thioureido]-phenyl}-amide hydrochloride], the results for the inhibition at 60 µM on SIRT1 and at SIRT2 were 10% and 48.5%, respectively. In addition, the results for the IC50 at SIRT1 and on SIRT2 were > 90 µM and 80.7 ± 14.4 µM, respectively.

For `CN(C)CCCCC(=O)Nc1ccc(NC(=S)NC(=O)c2ccccc2Cl)cc1` [Compound A2, 5-Dimethylamino-pentanoic acid {4-[3-(2-chloro-benzoyl)-thioureido]-phenyl}-amide hydrochloride], the inhibition at 60 µM worked out at 29.3% on SIRT1 and 54.3% on SIRT2.

With `COc1ccccc1C(=O)NC(=S)Nc1ccc(NC(=O)CCCCN(C)C)cc1` [Compound A3, 5-Dimethylamino-pentanoic acid {4-[3-(2-methoxy-benzoyl)-thioureido]-phenyl}-amide hydrochloride], the inhibition at 60 µM on SIRT1 was 48.7%; on SIRT2 it was 66.8%.

For `CN(C)CCCCC(=O)Nc1ccc(NC(=S)NC(=O)c2cccc(Cl)c2)cc1` [Compound A5, 5-Dimethylamino-pentanoic acid {4-[3-(3-chloro-benzoyl)-thioureido]-phenyl}-amide hydrochloride], the inhibition at 60 µM on SIRT1 was 29.2%; on SIRT2, 57.9%.

Regarding `CN(C)CCCCC(=O)Nc1ccc(NC(=S)NC(=O)c2cccc(Br)c2)cc1` [Compound A6, 5-Dimethylamino-pentanoic acid {4-[3-(3-bromo-benzoyl)-thioureido]-phenyl}-amide hydrochloride], on SIRT1, the inhibition at 60 µM amounted to 70.5% and the IC50 was determined as 39.9 ± 8.1 µM. Moreover, on SIRT2, the inhibition at 60 µM was determined as 81% and the 50% inhibitory concentration (IC50) was determined as 21.2 ± 7.2 µM.

Regarding `Cc1cccc(C(=O)NC(=S)Nc2ccc(NC(=O)CCCCN(C)C)cc2)c1` [Compound B1, 5-Dimethylamino-pentanoic acid {4-[3-(3-methyl-benzoyl)-thioureido]-phenyl}-amide], the inhibition at 60 µM on SIRT1 turned out to be 5%; at SIRT2, 20.9%.

On to `COc1cccc(C(=O)NC(=S)Nc2ccc(NC(=O)CCCCN(C)C)cc2)c1` [Compound B2, 5-Dimethylamino-pentanoic acid {4-[3-(3-methoxy-benzoyl)-thioureido]-phenyl}-amide hydrochloride], for which the inhibition at 60 µM turned out to be 25.3% at SIRT1 and 30.5% on SIRT2.

Consider `COc1cc(C(=O)NC(=S)Nc2ccc(NC(=O)CCCCN(C)C)cc2)cc(OC)c1OC` [Compound D2, 5-Dimethylamino-pentanoic acid {4-[3-(3,4,5-trimethoxy-benzoyl)-thioureido]-phenyl}-amide hydrochloride], for which, on SIRT2, the inhibition at 60 µM was determined as 18%.
